According to US11414403B2, “Antibacterial compound and uses of same” (BIOMÉRIEUX, priority 2017, dated 2022):
Converted amounts (≈) assume the structure as drawn.

Experiments:
Assay in all cases: MIC by agar dilution method
Format in all cases: cell-based
[1] = test system: Staphylococcus epidermidis NCTC 11047; details: NCTC11047, 22 hours at 37° C.
Protocol: (§1) The minimum inhibitory concentrations (MICs) of L-pyroglutamyl-L-1-aminoethyltetrazole (12) for 13 Gram-negative strains of bacteria and 8 Gram-positive strains of bacteria were determined using an agar dilution method described by Andrews J M. 2001 (“Determination of minimum inhibitory concentrations[…]; J. Antimicrob. Chemother. (2001) 48 Suppl. 1:5-16). Said method required the use of a defined antagonist-free medium (without peptone), prepared in the way previously described with the inclusion of 2% saponin-lysed horse blood, 25.0 μg/ml of NAD and 25.0 μg/ml of hemin (Atherton et al., 1979; “Phosphonopeptides as antibacterial agents: rationale, chemistry, and structure-activity relationships[…]; Antimicrob. Agents Chemother. (1979) 15:677-683). […] All the isolates were prepared at a density equivalent to […] in sterile deionized water using a densitometer (approximately 1.5×10^8 CFU/ml), then diluted to […]. A 1 μl aliquot of each diluted suspension was then placed on dishes with a multispot inoculator to give the recommended final inoculation of 10 000 CFU/spot (Andrews, 2001. “Determination of minimum inhibitory concentrations”; J. Antimicrob. Chemother. 48 Suppl 1:5-16). All the dishes (including the antimicrobial-free controls) were incubated for 22 hours at 37° C. All the tests were carried out on at least two independent replicates in order to examine the reproducibility.
(§2) The bacterial isolates tested all come from international collections, the American Type Culture Collection (ATCC) and the National Collection of Type Cultures (NCTC).

[2] = test system: Escherichia coli NCTC 12241; details: NCTC12241, 22 hours at 37° C.
Protocol: as §1, §2

[3] = test system: Escherichia coli NCTC 10418; details: NCTC10418, 22 hours at 37° C.
Protocol: as §1, §2

[4] = test system: Serratia marcescens NCTC 10211
Protocol: as §1, §2

[5] = test system: Burkholderia cepacia ATCC 25416; details: ATCC25416, 22 hours at 37° C.
Protocol: as §1, §2

[6] = test system: Salmonella enteritidis NCTC 74; details: Salmonella enterica, 22 hours at 37° C.
Protocol: as §1, §2

[7] = test system: Salmonella enteritidis NCTC 6676; details: Salmonella enterica, 22 hours at 37° C.
Protocol: as §1, §2

[8] = test system: Streptococcus agalactiae NCTC 8181; details: NCTC8181, 22 hours at 37° C.
Protocol: as §1, §2

[9] = test system: Staphylococcus aureus (MSSA) NCTC 6571; details: 22 hours at 37° C.
Protocol: as §1, §2

[10] = test system: Klebsiella pneumoniae NCTC 9528
Protocol: as §1, §2

[11] = test system: Yersinia enterocolitica NCTC 11176
Protocol: as §1, §2

[12] = test system: Enterococcus faecalis NCTC 775
Protocol: as §1, §2

[13] = test system: Listeria monocytogenes NCTC 11994; details: NCTC11994, 22 hours at 37° C.
Protocol: as §1, §2

[14] = test system: Enterobacter cloacae NCTC 11936; details: NCTC11936, 22 hours at 37° C.
Protocol: as §1, §2

[15] = test system: Pseudomonas aeruginosa NCTC 10662; details: NCTC10662, 22 hours at 37° C.
Protocol: as §1, §2

[16] = test system: Enterococcus faecium NCTC 7171
Protocol: as §1, §2

[17] = test system: Staphylococcus aureus (MRSA) NCTC 11939; details: 22 hours at 37° C.
Protocol: as §1, §2

[18] = test system: Acinetobacter baumannii ATCC 19606; details: ATCC19606, 22 hours at 37° C.
Protocol: as §1, §2

[19] = test system: Providencia rettgeri NCTC 7475; details: NCTC7475, 22 hours at 37° C.
Protocol: as §1, §2

[20] = test system: Bacillus subtilis NCTC 9372
Protocol: as §1, §2

[21] = test system: Salmonella typhimurium NCTC 74; details: Salmonella enterica, 22 hours at 37° C.
Protocol: as §1, §2

[22] = at very low concentrations, of about 2 mg/l, enterococci

SMILES: C[C@H](NC(=O)[C@@H]1CCC(=O)N1)c1nnn[nH]1 [compound 12, L-pyroglutamyl-L-1-aminoethyltetrazole]
- MIC [1]: > 128 µg/mL
- MIC [2]: > 128 µg/mL
- MIC [3]: > 128 µg/mL
- MIC ([4]; NCTC10211, Serratia marcescens NCTC 10211, 22 hours at 37° C.): 8 µg/mL (≈ 35.7 µM)
- antibacterial activity (in words) ([4]; Serratia marcescens): highly inhibitory
- MIC [5]: > 128 µg/mL
- MIC [6]: > 128 µg/mL
- MIC [7]: > 128 µg/mL
- MIC [8]: > 128 µg/mL
- MIC [9]: > 128 µg/mL
- Growth at various concentrations (mg/l) ([10]; 4 mg/l, Klebsiella pneumoniae NCTC 9528): Tr.
- antibacterial activity (in words) ([10]; Klebsiella pneumoniae): highly inhibitory
- MIC ([10]; NCTC9528, Klebsiella pneumoniae NCTC 9528, 22 hours at 37° C.): 8 µg/mL (≈ 35.7 µM)
- Growth at various concentrations (mg/l) ([11]; 2 mg/l, Yersinia enterocolitica NCTC 11176): Tr.
- MIC ([11]; NCTC11176, Yersinia enterocolitica NCTC 11176, 22 hours at 37° C.): 4 µg/mL (≈ 17.8 µM)
- antibacterial activity (in words) ([11]; Yersinia enterocolitica): highly inhibitory
- antibacterial activity (in words) ([12]; Enterococcus faecalis): highly inhibitory
- MIC ([12]; NCTC775, Enterococcus faecalis NCTC 775, 22 hours at 37° C.): 2 µg/mL (≈ 8.92 µM)
- inhibition specificity (in words) [12, 22]: excellent inhibition specificity for enterococci
- MIC [13]: > 128 µg/mL
- MIC [14]: > 128 µg/mL
- MIC [15]: > 128 µg/mL
- antibacterial activity (in words) ([16]; Enterococcus faecium): highly inhibitory
- MIC ([16]; NCTC7171, Enterococcus faecium NCTC 7171, 22 hours at 37° C.): 2 µg/mL (≈ 8.92 µM)
- inhibition specificity (in words) [16, 22]: excellent inhibition specificity for enterococci
- MIC [17]: > 128 µg/mL
- MIC [18]: > 128 µg/mL
- MIC [19]: > 128 µg/mL
- antibacterial activity (in words) ([20]; Bacillus subtilis): highly inhibitory
- MIC ([20]; NCTC9372, Bacillus subtilis NCTC 9372, 22 hours at 37° C.): 64 µg/mL (≈ 285 µM)
- MIC [21]: > 128 µg/mL
